Assay [1] deals with Porcine/bovine ETEC (n = 83). The assay is described as follows: MIC, broth micro-dilution, clinical isolates. The class given is cell-based, Escherichia coli. The settings on record: for MIC50 / MIC90: Escherichia coli; for MIC range: Porcine/bovine ETEC (n = 83). The protocol: (§1) A variety of Gram-negative reference strains (E. coli ATCC 25922, E. coli ATCC 10763, P. aeruginosa PAO1, P. aeruginosa ATCC 27853, A. baumannii ATCC 12457, A. baumannii ATCC 19606, K. pneumoniae ATCC 4352 and K. pneumoniae ATCC 33495) were used for initial screening and combination testing with PMB. The organisms were speciated using biochemical testing and MALDI-TOF mass spectrometry (Bruker, Preston, VIC, Australia). Activity testing of NCL259 and NCL265 was also carried out on 51 extraintestinal clinical E. coli isolates from companion animals, and 83 porcine and bovine enterotoxigenic E. coli (ETEC) isolates from the Australian Centre for Antimicrobial Resistance Ecology collection. E. coli wild-type (BW 25113) and its mutant BW 25113∆AcrB, in which the inner membrane component AcrB of the tripartite multidrug efflux system AcrA/AcrB/TolC has been deleted, were obtained from the bacterial collection held at Health and Biomedical Innovation, Clinical and Health Sciences, The University of South Australia. All isolates were cultured on sheep blood agar (SBA) plates at 37 °C for 18 h before being subcultured into Luria Bertaini (LB) (Oxoid, Scoresby, VIC, Australia) broth and grown to A600nm = 0.5 (equivalent to approx. 1.5 × 10^8 colony-forming units (CFU)/mL).
(§2) MICs for NCL259 and NCL265 (serial two-fold dilutions commencing at 256 µg/mL) were determined (in duplicate) in round bottom 96–well microtitre trays (Sarstedt 82.1582.001), using the broth micro-dilution method recommended by the Clinical and Laboratory Standards Institute (CLSI). We have shown previously that robenidine can chelate calcium ions from cation-adjusted Mueller-Hinton broth, which causes the loss of activity of robenidine. Therefore, LB broth was used in this study. Additionally, considering the low solubility of robenidine and its analogues in aqueous solutions, two-fold serial dilutions of stock solutions of these compounds were prepared in 100% DMSO [21]. The MIC for ampicillin against each isolate was determined for each test to serve as an internal quality control. The MICs of isolates were determined by visual reading and using an EnSpire Multimode Plate Reader 2300 at A600nm.
Background: Dilution methods test growth across graded concentrations, often in twofold steps.

Assay [2] concerns Companion animal ExPEC (n = 51). The assay is described as follows: MIC, broth micro-dilution, clinical isolates. The class given is cell-based, Escherichia coli. The following applies: for MIC range: Companion animal ExPEC (n = 51); for MIC50 / MIC90: Escherichia coli. The protocol: as §1, §2
The next assay deals with K. pneumoniae ATCC 4352. Kind of assay: Checkerboard assay with PMB. Format: cell-based, Klebsiella pneumoniae. The settings on record: for MIC, Combination: NCL259 or NCL265 with PMB; for Combination Effect / FICI: with PMB. The protocol:
(§3) MICs of NCL259 or NCL265 in the presence of the efflux pump inhibitor, PAβN were determined using a checkerboard assay. […] Briefly, a two-fold serial dilution of each antimicrobial solution was prepared in its appropriate solvent (e.g., DMSO for robenidine analogues and Milli-Q water for PAβN), and 1 μL of each dilution was added from wells 12 to 3 (12.8–0.25 μg/mL for robenidine analogues, and 32–2 μg/mL for PAβN). Thereafter, 89 μL of LB broth was added to each well followed by the addition of 10 μL of bacterial suspension (1–5 × 10^6 CFU/mL) to each well. In this manner, the final concentration of DMSO in each well was 1%. The plate was subsequently incubated at 37 °C for 24 h. The resazurin assay was used for assessment of drug susceptibility of NCL259 and NCL265 (Supplementary Table S1–S6). The same method was also used to test the MICs of NCL259 or NCL265 in the presence of PMB against a range of Gram-negative reference strains (E. coli ATCC 25922, E. coli ATCC 10763, P. aeruginosa PAO1, P. aeruginosa ATCC 27853, A. baumannii ATCC 12457, A. baumannii ATCC 19606, K. pneumoniae ATCC 4352 and K. pneumoniae ATCC 33495). Stock solutions were prepared prior to use (25.6–0.25 mg/mL for robenidine analogues; 12.8–0.25 mg/mL for PMB). The interaction of two antibiotics was calculated as the fractional inhibitory concentration index (FICI) using the following formula:(1) FICI=MICA in combination/MICA alone+MICB in combination/MICB alone where A is NCL259 or NCL265 and B is PAβN or PMB. According to FICI calculations, the interaction between two compounds were interpreted as follows: synergistic (FICI ≤ 0.5); additive or partially synergistic (0.5 < FICI ≤ 1); indifferent (1 < FICI ≤ 4); and antagonistic (FICI > 4), as described previously. The dose reduction index (DRI) was used to describe the difference between the effective doses of NCL259 or NCL265 in combination with PMB or PAβN in comparison to their individual doses, using the following formula:(2) DRI=MICA alone/MICA in combination
(§4) Evaluation of DRI is important clinically because it can allow the dose of a potentially toxic drug to be lowered in combination with another compound without reducing the drug’s efficacy. A DRI higher than 1 is viewed as beneficial.

The subject of another assay is K. pneumoniae ATCC 33495. The assay is described as follows: Checkerboard assay with PMB. The class given is cell-based, Klebsiella pneumoniae. The settings on record: for MIC, Combination: NCL259 or NCL265 with PMB; for Combination Effect / FICI: with PMB. As to the method:
as §3, §4

In assay [3] the test system is Gram-negative human and animal isolates, including human KAPE pathogens. The assay is described as follows: MIC range over all isolates. The following applies: variety of Gram-negative human and animal isolates (discussion). Format: cell-based. The protocol:
A variety of Gram-negative reference strains (E. coli ATCC 25922, E. coli ATCC 10763, P. aeruginosa PAO1, P. aeruginosa ATCC 27853, A. baumannii ATCC 12457, A. baumannii ATCC 19606, K. pneumoniae ATCC 4352 and K. pneumoniae ATCC 33495) were used for initial screening and combination testing with PMB. The organisms were speciated using biochemical testing and MALDI-TOF mass spectrometry (Bruker, Preston, VIC, Australia). Activity testing of NCL259 and NCL265 was also carried out on 51 extraintestinal clinical E. coli isolates from companion animals, and 83 porcine and bovine enterotoxigenic E. coli (ETEC) isolates from the Australian Centre for Antimicrobial Resistance Ecology collection. […]
MICs for NCL259 and NCL265 (serial two-fold dilutions commencing at 256 µg/mL) were determined (in duplicate) in round bottom 96–well microtitre trays (Sarstedt 82.1582.001), using the broth micro-dilution method recommended by the Clinical and Laboratory Standards Institute (CLSI). […] The MIC for ampicillin against each isolate was determined for each test to serve as an internal quality control. The MICs of isolates were determined by visual reading and using an EnSpire Multimode Plate Reader 2300 at A600nm.

The test system of assay [4] is E. coli-type strains ATCC 11229 and ATCC 25922. Further details: method as in PMID 30318716, PMID 31312589. The following applies: E. coli ATCC 11229 and ATCC 25922; cited from earlier work.

For orientation: MIC50 means an inhibitory concentration at the 50% level, which refers to growth in some studies and to a panel of isolates in others. One may read the MIC90 as the lowest concentration that inhibits either 90% of growth or 90% of the strains tested, depending on the study. The term MBC denotes the lowest tested concentration that kills the bacteria rather than only halting them. What is called MIC is the lowest concentration found to suppress growth. As for `[H]/N=C(\N)NN=C(CCCCCC)c1ccc(Cl)cc1` [NCL265, (E)-2-(1-(4-chlorophenyl)heptylidene)hydrazine-1-carboximidamide], in assay [1], the MIC50 is 8 µg/mL, the MIC90 came out at 8 µg/mL and the “MIC range” value is 2 to 16 µg/mL. In assay [2], the “MIC range” value fell in the range of 4 to 16 µg/mL, the MIC50 worked out at 32 µg/mL and the MIC90 came to 32 µg/mL. In the assay with K. pneumoniae ATCC 4352, the “MIC, Combination” value came to 0.5 µg/mL; the “Combination Effect” value is “Synergism (synergistic, FICI ≤ 0.5)”; the FICI stood at 0.5. For the same compound, the “Dose Reduction Index (DRI) PMB:NCL265” value in the assay with K. pneumoniae ATCC 4352 (PMB + NCL265) is recorded as 4:4. For the same compound, in the assay on K. pneumoniae ATCC 33495, the “MIC, Combination” value was found to be 2 µg/mL; the “Combination Effect” value is given as “Synergism (synergistic, FICI ≤ 0.5)”; the FICI was determined as 0.281. In addition, in the assay on K. pneumoniae ATCC 33495 (PMB + NCL265), the “Dose Reduction Index (DRI) PMB:NCL265” value came out at 32. Further, in assay [3], the MIC range fell in the range of 2 to 32 µg/mL. Further, in assay [4], the MBC was 8 to 16 µg/mL and the MIC was 8 to 16 µg/mL.

With `[H]/N=C(\N)NN=C(CC1CCCCC1)c1ccc(Cl)cc1` [NCL259, (E)-2-(1-(4-chlorophenyl)-2-cyclohexylethylidene)hydrazine-1-carboximidamide], in assay [1], the MIC50 was found to be 8 µg/mL, the MIC90 was 8 µg/mL and the “MIC range” value lay in the range of 4 to 64 µg/mL. Further, in assay [2], the “MIC range” value lay within 16 to 64 µg/mL, the MIC50 amounted to 32 µg/mL and the MIC90 is 32 µg/mL. In the assay on K. pneumoniae ATCC 4352, the “MIC, Combination” value was determined as 1 µg/mL; the “Combination Effect” value is “Synergism (synergistic, FICI ≤ 0.5)”; the FICI is listed as 0.375. Further, the “Dose Reduction Index (DRI) PMB:NCL259” value with K. pneumoniae ATCC 4352 (PMB + NCL259) was 8. For the same compound, in the assay on K. pneumoniae ATCC 33495, the “MIC, Combination” value stood at 1 µg/mL; the “Combination Effect” value is on record as “Additivity (additive or partially synergistic, 0.5 < FICI ≤ 1)”; the FICI worked out at 0.516. The “Dose Reduction Index (DRI) PMB:NCL259” value with K. pneumoniae ATCC 33495 (PMB + NCL259) is recorded as 64. For the same compound, in assay [4], the MBC is 8 to 16 µg/mL and the MIC is 8 to 16 µg/mL.
